# Experimental data taken from PMC5432742, “Vasorelaxing and antihypertensive activities of synthesized peptides derived from computer-aided simulation of pepsin hydrolysis of yam dioscorin” (Botanical Studies, 2014).
# Where two headings read alike, the source gives them in different places.
# Columns and labels:
# [1] = trolox equivalents (TE); ref Hernández-Ledesma et al. 2005; cited from earlier work
# [2] = test system: spontaneously hypertensive rats (SHRs); experiment: Antihypertensive effect in SHRs after a single oral administration (tail-cuff blood pressure); type: in vivo, rat; conditions: SHR, N = 6
# Experimental: Experimental procedures were reviewed and approved by the Institutional Animal Care and Use Committee of Taipei Medical University (LAC-95-0076, LAC-97-0117, and LAC-100-0038). Male SHRs (18–28 weeks old; from National Laboratory Animal Center, Taipei, Taiwan) were housed individually in steel cages kept at 24°C under a 12-h light–dark cycle, with free access to water and a standard mouse/rat chow (Prolab® RMH2500, 5P14 Diet, PMI Nutrition International Brentwood, MO, USA). SHRs were randomly divided into 4 groups (N = 6 of each group), KTCGY or KRIHF at concentration of 10 mg/kg and 20 mg/kg was orally administered to the SHRs, and the SBP were measured after 0, 2, 4, 6, 8, and 24 h by using an indirect tail-cuff blood pressure meter (BP98-A, Softron, Tokyo, Japan). Distilled water (0.5 ml) was administered to the SHRs in the blank group. The captopril (10 mg/kg) was used as the positive control.
# Figure 3 Antihypertensive activity of (A) KTCGY and (B) KRIHF on systolic blood pressure of spontaneously hypertensive rats (SHRs). KTCGY or KRIHF at concentration of 10 mg/kg and 20 mg/kg was orally administered to the SHRs (6 rats/group), and the SBP were measured after 0, 2, 4, 6, 8, and 24 h by using an indirect tail-cuff blood pressure meter (BP98-A, Softron, Tokyo, Japan). Distilled water (0.5 ml) was administered to the SHRs in the blank group. The captopril (10 mg/kg) was used as the positive control.
# [3] = test system: endothelium-denuded rat thoracic aortic rings; experiment: Relaxation of phenylephrine-induced tension in endothelium-denuded rat thoracic aortic rings ex vivo; design: species or system Sprague-Dawley rat; conditions: PE 0.3 μM; for aortic ring relaxation in endothelium-denuded rings (in words): cumulative 0.1 to 100 μM; for PE-induced endothelium-denuded aortic ring tension (PE plateau = 100%): 100 μM test substance, endothelium-denuded rings
# Experimental: (§1) Effects of four peptides and captopril on vascular tension were examined following the previous method (Wang et al. [2001]). Male Sprague–Dawley rats were killed by decapitation, and sections of the thoracic aorta between the aortic arch and the diaphragm were excised carefully and placed in a Petri dish with oxygenated Krebs’ buffer (120 mM NaCl, 4.5 mM KCl, 2.5 mM CaCl2, 1 mM MgSO4, 27 mM NaHCO3, 1 mM KH2PO4, 10 mM glucose, pH 7.4, with 95% O2, 5% CO2) and gently dissected free of fat and connective tissue. The endothelium was removed by gently rubbing the intimal layer of the vessel with a wire. The isolated aortic rings, 3 to 4 mm in length with or without the endothelium, were fixed isometrically in organ chambers under passive tension (1.8 g) for 60 min. Changes in vascular tension were recorded with a polygraph (Gould, model 2400, Valley View, OH, USA) via a force displacement transducer (Grass FT03, Quincy, MA, USA). After equilibration, the near maximal concentration was induced by PE (0.3 μM). When the rings achieved a stable tension, the acetylcholine (3 μM) was added to the bath to assess endothelial integrity. The relaxing effects of KTCGY, KTCGYKTCGY, TCGYTCGY, KRIHF, and captopril on PE (0.3 μM) pre-contracted endothelium-intact or endothelium-denuded aortic rings were examined. When PE treatments reached a steady plateau (considered as 100%), KTCGY, KTCGYKTCGY, TCGYTCGY, KRIHF, and captopril were then tested at cumulative concentrations (0.1 to 100 μM) for their ability to induce aortic ring relaxations.
# (§2) Figure 2 Vasorelaxing activity of endothelium-intact and endothelium-denuded SD rat aortic rings in phenylephrine-induced tensions. (A) KTCGY, (B) KTCGYKTCGY, (C) TCGYTCGY, (D) KRIHF, and (E) captopril on Data were expressed as mean ± S.E.
# [4] = test system: endothelium-intact rat thoracic aortic rings; experiment: Relaxation of phenylephrine-induced tension in endothelium-intact rat thoracic aortic rings ex vivo; design: species or system Sprague-Dawley rat
# Experimental: as §1, §2
# [5] = test system: spontaneously hypertensive rats (SHRs); conditions: ref Fujita et al. 2000; cited from earlier work
# Source text: (§3) The untreated high blood pressure is considered to be the central factor in stroke which accounts approximately 33% deaths (Mark and Davis [2000]). There are several classes of pharmacological agents which have been used in the treatment of hypertension, and one class of antihypertensive drugs known as angiotensin I converting enzyme (ACE) inhibitors is associated with a low rate of adverse side effects and is the preferred class of antihypertensive agents when treating patients with concurrent secondary diseases or cardiovascular diseases (Zaman et al. [2002]). ACE (peptidyldipeptide hydr ...
# [6] = test system: ACE; conditions: read-out: ACE inhibition IC50, cited from earlier work
# Source text: as §3, with “[2002]).” for “[2002]). ACE (peptidyldipeptide hydr ...”
# [7] = test system: ACE (rabbit lung); experiment: ACE inhibitory assay screening (FAPGG substrate, absorbance at 345 nm); type: biochemical; conditions: peptide 40 μM; 0.5 mM FAPGG in 50 mM Tris-HCl pH 7.5, 0.3 M NaCl; 90 sec, room temperature
# Experimental: The ACE inhibitory activity was measured following the previous reports with some modifications (Hsu et al. [2002]). Each synthesized peptide was dissolved in DMSO to 4 mM as stocks. The 1 ml, 0.5 mM FAPGG (dissolved in 50 mM Tris–HCl buffer, pH 7.5, containing 0.3 M NaCl) was mixed with 12.2 μl peptide solution, and then twenty μl ([…]) of commercial ACE (stock solution, 1U/ ml) was added. The 0.1% DMSO solution was used instead of sample solution for blank experiments (ΔAblank/min). The decreased absorbance at 345 nm (ΔAsample/min) was recorded during 90 sec at room temperature. The ACE inhibition (%) was calculated as followed: [1 - (ΔAsample/min ÷ ΔAblank/min)] × 100.
# Figure 1 ACE inhibition by 23 synthesized peptides (40 μM) derived from a computer-aided simulation of pepsin hydrolysis of yam dioscorin. The 0.1% DMSO solution was used instead of sample solution for blank experiments (ΔAblank/min). The decreased absorbance at 345 nm (ΔAsample/min) was recorded during 90 sec at room temperature. The ACE inhibition (%) was calculated as followed: [1 - (ΔAsample/min ÷ ΔAblank/min)] × 100. The synthesized peptides included (1) KTCGNGME, (2) PPCSE, (3) CDDRVIRTPLT, (4) KTCGY, (5) PPCTE, (6) RDNGVIF, (7) KRIHF, (8) RRDY, (9) RSVF, (10) PTNF, (11) GISW, (12) MGSF, (13) VSIL, (14) HSPA, (15) DPF, (16) RY, (17) RF, (18) NW, (19) RL, (20) GVI, (21) GSL, (22) SY, and (23) GPA. […]
# [8] = test system: spontaneously hypertensive rats (SHRs); experiment: Antihypertensive effect in SHRs after a single oral administration (tail-cuff blood pressure); type: in vivo, rat; conditions: 10 and 20 mg/kg single oral dose, SHR; data not shown
# [9] = 100 μM test substance, PE 0.3 μM, endothelium-intact rings, mean ± S.E. (Figure 2), SEM
compound,measurement,setting,value
N[C@@H](CS)C(=O)O [Cys],oxygen radical absorbance capacity (ORAC) activity,[1],0.1492 μmole TE/μmole
N[C@@H](Cc1c[nH]cn1)C(=O)O [His],oxygen radical absorbance capacity (ORAC) activity,[1],0.073 μmole TE/μmole
CSCC[C@H](N)C(=O)O [Met],oxygen radical absorbance capacity (ORAC) activity,[1],1.126 μmole TE/μmole
N[C@@H](Cc1ccccc1)C(=O)O [Phe],oxygen radical absorbance capacity (ORAC) activity,[1],0.0025 μmole TE/μmole
N[C@@H](Cc1c[nH]c2ccccc12)C(=O)O [Trp],oxygen radical absorbance capacity (ORAC) activity,[1],4.649 μmole TE/μmole
N[C@@H](Cc1ccc(O)cc1)C(=O)O [Tyr],oxygen radical absorbance capacity (ORAC) activity,[1],1.574 μmole TE/μmole
"C[C@H](CS)C(=O)N1CCC[C@H]1C(=O)O [captopril, reference compound]",average reduced SBP,"[2]; 10 mg/kg single oral dose, 2-h",26.85 mmHg
same,average reduced SBP,"[2]; 10 mg/kg single oral dose, 4-h",24.97 mmHg
same,average reduced SBP,"[2]; 10 mg/kg single oral dose, 6-h",29.82 mmHg
same,average reduced SBP,"[2]; 10 mg/kg single oral dose, 8-h",24 mmHg
same,average reduced SBP,"[2]; 10 mg/kg single oral dose, 24-h",13.80 mmHg
same,aortic ring relaxation in endothelium-denuded rings (in words),[3],not endothelium-denuded
same,PE-induced aortic ring tension (PE plateau = 100%),"[4]; 100 µM, SEM",26.81 ± 5.54%
ERKIKVYL,reduction of blood pressure in SHRs (in words),[5],none of them were effective
same,IC50,[6]; ref Fujita et al. 2000,1.2 µM
FFGRCVSP,reduction of blood pressure in SHRs (in words),[5],none of them were effective
same,IC50,[6]; ref Fujita et al. 2000,0.4 µM
"KRIHF [penta-peptide, residues 118–122 of dioscorin A and dioscorin B]",average reduced SBP,"[2]; 10 mg/kg single oral dose, 2-h",17.30 mmHg
same,average reduced SBP,"[2]; 10 mg/kg single oral dose, 4-h",21.95 mmHg
same,average reduced SBP,"[2]; 10 mg/kg single oral dose, 6-h",21.47 mmHg
same,average reduced SBP,"[2]; 10 mg/kg single oral dose, 8-h",16.65 mmHg
same,average reduced SBP,"[2]; 20 mg/kg single oral dose, 2-h",18.57 mmHg
same,average reduced SBP,"[2]; 20 mg/kg single oral dose, 4-h",19.64 mmHg
same,average reduced SBP,"[2]; 20 mg/kg single oral dose, 6-h",20.87 mmHg
same,average reduced SBP,"[2]; 20 mg/kg single oral dose, 8-h",8.99 mmHg
same,ACE inhibition (%),[7],higher than 50%
same,lowering of diastolic blood pressure (in words),[8],not diastolic blood pressure
same,aortic ring relaxation in endothelium-denuded rings (in words),[3],not endothelium-denuded
same,PE-induced aortic ring tension (PE plateau = 100%),"[4]; 10 μM test substance, PE 0.3 μM, endothelium-intact rings",80.26 ± 7.82%
same,PE-induced aortic ring tension (PE plateau = 100%),[4]; [9],19.19 ± 7.63%
"KTCGY [penta-peptide, residues 52–56 of dioscorin B]",average reduced SBP,"[2]; 10 mg/kg single oral dose, 6-h",24.17 mmHg
same,average reduced SBP,"[2]; 10 mg/kg single oral dose, 8-h",11.93 mmHg
same,average reduced SBP,"[2]; 20 mg/kg single oral dose, 2-h",24.20 mmHg
same,average reduced SBP,"[2]; 20 mg/kg single oral dose, 4-h",26.24 mmHg
same,average reduced SBP,"[2]; 20 mg/kg single oral dose, 6-h",31.03 mmHg
same,average reduced SBP,"[2]; 20 mg/kg single oral dose, 8-h",21.40 mmHg
same,ACE inhibition (%),[7],higher than 50%
same,lowering of diastolic blood pressure (in words),[8],not diastolic blood pressure
same,aortic ring relaxation in endothelium-denuded rings (in words),[3],not endothelium-denuded
same,PE-induced aortic ring tension (PE plateau = 100%),[4]; [9],26.97 ± 7.48%
KTCGYKTCGY [two-repeated KTCGY],PE-induced endothelium-denuded aortic ring tension (PE plateau = 100%),[3],66.59 ± 14.84%
same,PE-induced aortic ring tension (PE plateau = 100%),[4]; [9],46.05 ± 8.02%
"RADHPF [ovokinin (2–7), hexa-peptide isolated from chymotryptic ovalbumin hydrolysates]",IC50,[6]; ref Matoba et al. 1999,> 1000 µM
TCGYTCGY [two-repeated TCGY],PE-induced endothelium-denuded aortic ring tension (PE plateau = 100%),[3],74.44 ± 15.13%
same,PE-induced aortic ring tension (PE plateau = 100%),[4]; [9],43.52 ± 6.42%
